# How the values were obtained:
# Experiment in all cases: In vitro cytotoxicity GI50, Example 48
# Type in all cases: cell-based
# [1] = tested on: HCT-116 (COLON); conditions: Homo sapiens, HCT-116, HCT-116; Alamar Blue or Sulfarhodamine B
# Description: The study was performed using either Alamar Blue or Sulfarhodamine B assays.
# [2] = tested on: H460 (NSCLC); conditions: Homo sapiens, NCI-H460; H460; Alamar Blue or Sulfarhodamine B; read-out: GI50
# [3] = tested on: HCT-15 (COLON); conditions: Homo sapiens, Alamar Blue or Sulfarhodamine B
# [4] = tested on: SKOV-3 (OVARIAN); conditions: Homo sapiens, SK-OV-3, Alamar Blue or Sulfarhodamine B
smiles,measurement,setting,value
"CC[C@@]1(O)C(=O)OCc2c1cc1n(c2=O)Cc2cc3cc(OC(=O)CCC(=O)Oc4c(C)c(C)c5c(c4C)CC[C@@](C)(CCC[C@H](C)CCC[C@H](C)CCCC(C)C)O5)ccc3nc2-1 [VESA-10-HO-CPT, Butanedioic acid, (2R)-3,4-dihydro-2,5,7,8-tetramethyl-2-[(4R,8R)-4,8,12-trimethyltridecyl]-2H-1-benzopyran-6-yl (4S)-4-ethyl-3,4,12,14-tetrahydro-4-hydroxy-3,14-dioxo-1H-pyrano[3′,4′:6,7]indolizino[1,2-b]quinolin-9-yl ester]",GI50,[1],186 nM
same,GI50,[2],155 nM
same,GI50,[3],1290 nM
same,GI50,[4],97.7 nM

# From patent publication US20080045559A1, “TOCOPHEROL-MODIFIED THERAPEUTIC DRUG COMPOUNDS” (SONUS PHARMACEUTICALS, INC., priority 2003, published 2008)
